Among the data in PubChem BioAssay (NCI) are TGI and GI50 values, retold here.

Among the test systems are COLO 205 colon; HCT-15 colon; HT29 colon; NCI-H460 lung; NCI/ADR-RES ovarian; SK-OV-3 ovarian; TK-10 renal.
Holding throughout (assay): NCI anticancer screen, dose series, 48 h

Several values for one entry are separate records, joined by “and”; a condition that tells them apart may be missing. Equal values may be shown once.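 Growth conditions: 96-well plates. Treatment: test compound, 48 hours, 5 concentrations. Analysis: linear interpolation between bracketing concentrations; unreached endpoints set to highest concentration. GI50 marks 50% less growth. TGI: total growth inhibition.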

As for `CN1c2ccccc2S(=O)(=O)n2c(CCc3ccccc3)nnc21`, the TGI in the experiment with COLO 205 colon, with HCT-15 colon, with HT29 colon, in the experiment with NCI-H460 lung, with NCI/ADR-RES ovarian and in the experiment on SK-OV-3 ovarian was > 100 µM in each case. Further, in the experiment on TK-10 renal, the TGI was > 100 µM.
`Cc1nn(CNc2ccccc2C(F)(F)F)c(=S)n1/N=C/c1ccc(F)cc1`: the GI50 in the experiment with COLO 205 colon was 53200 nM; with HCT-15 colon it was 53700 nM; with HT29 colon, 42100 nM; in the experiment on NCI-H460 lung, > 100000 nM; in the experiment on NCI/ADR-RES ovarian it was > 100 µM; with SK-OV-3 ovarian, > 100000 nM. For the same molecule, the GI50 in the experiment on TK-10 renal is 53800 nM. For the same molecule, the TGI in the experiment on COLO 205 colon, with HCT-15 colon, with HT29 colon, in the experiment with NCI-H460 lung, in the experiment with NCI/ADR-RES ovarian and in the experiment on SK-OV-3 ovarian was > 100 µM each time. In addition, the TGI in the experiment with TK-10 renal was > 100 µM.
With `N=c1ccc2nc3c(cc(N)c4ccccc43)oc-2c1`, the GI50 in the experiment with COLO 205 colon was 237 nM; in the experiment with HCT-15 colon it was 214 nM; in the experiment with HT29 colon, 535 nM; in the experiment with NCI-H460 lung, 223 nM; in the experiment with NCI/ADR-RES ovarian, 0.223 µM; in the experiment on SK-OV-3 ovarian, 477 nM. In addition, in the experiment with TK-10 renal, the GI50 was 737 nM. The TGI came to 0.892 µM with COLO 205 colon; 1.13 µM in the experiment with HCT-15 colon; 1.7 µM with HT29 colon; 0.565 µM in the experiment with NCI-H460 lung; 1.09 µM in the experiment on NCI/ADR-RES ovarian; 1.73 µM in the experiment on SK-OV-3 ovarian. The molecule also yielded a TGI with TK-10 renal of 2.4 µM.
With `Cc1ccc2sc3ccc(N)cc3c(=O)c2c1`, the TGI with COLO 205 colon, in the experiment on HCT-15 colon, with HT29 colon, with NCI-H460 lung, in the experiment on NCI/ADR-RES ovarian and in the experiment with SK-OV-3 ovarian was > 100 µM in each case. The TGI in the experiment on TK-10 renal is > 100 µM.
On to `COc1ccc([C@@H](O)c2cc(-c3ncnc4cc(N5CCOCC5)ccc34)c(F)cc2Cl)nn1`, for which the GI50 was 2850 nM in the experiment with COLO 205 colon; 3080 nM in the experiment on HCT-15 colon; 1970 nM in the experiment with HT29 colon; 2920 nM with NCI-H460 lung; 4.87 µM with NCI/ADR-RES ovarian; 1270 nM in the experiment with SK-OV-3 ovarian. In addition, the GI50 with TK-10 renal is 1950 nM. Besides, the TGI in the experiment with COLO 205 colon was found to be 16.5 µM; with HCT-15 colon, 23.2 µM; in the experiment with HT29 colon it was 20.9 µM; with NCI-H460 lung, 43.4 µM; in the experiment on NCI/ADR-RES ovarian it was 95.4 µM; in the experiment with SK-OV-3 ovarian it was 10.7 µM. Moreover, the TGI in the experiment on TK-10 renal is 17.7 µM.
`COC(=O)C(=O)C(C(=O)C(N)=O)c1nc2ccc(C(=O)c3ccccc3)cc2[nH]c1=O` (stereo not given): the TGI with HCT-15 colon, with HT29 colon, in the experiment with NCI-H460 lung, in the experiment on NCI/ADR-RES ovarian, in the experiment with SK-OV-3 ovarian and in the experiment with TK-10 renal was > 100 µM in each case.
Turning to `COc1cc2c3c(c1OC)C1(C=CC(=O)C=C1)CC3NCC2` (stereo not given), the TGI with COLO 205 colon, in the experiment on HCT-15 colon, with HT29 colon, in the experiment with NCI-H460 lung, in the experiment with NCI/ADR-RES ovarian and with SK-OV-3 ovarian was > 100 µM each time. Besides, in the experiment on TK-10 renal, the TGI was > 100 µM.
Regarding `Oc1c(CN2CCCC2)cc(CSCc2ccccc2)c2cccnc12`, the GI50 in the experiment with COLO 205 colon is 4820 nM; with HCT-15 colon it was 61.2 nM; in the experiment on HT29 colon, 3880 nM; with NCI-H460 lung, 498 nM; in the experiment with NCI/ADR-RES ovarian it was 0.0989 µM; in the experiment with SK-OV-3 ovarian, 666 nM. Moreover, in the experiment on TK-10 renal, the GI50 was 775 nM. The TGI in the experiment with COLO 205 colon is 18.7 µM; with HCT-15 colon, 1.85 µM; with HT29 colon, 14 µM; with NCI-H460 lung, 2.83 µM; in the experiment on NCI/ADR-RES ovarian it was 0.807 µM; in the experiment with SK-OV-3 ovarian, 2.82 µM. In the experiment on TK-10 renal, this molecule came in with a TGI of 13.1 µM.
As to `CC[C@]1(O)C[C@@H]2CN(CCc3c([nH]c4ccccc34)[C@@](C(=O)OC)(c3cc4c(cc3OC)N(C)[C@H]3[C@@](O)(C(N)=O)[C@H](O)[C@]5(CC)[C@@H]6C[C@@H]6CN6CC[C@]43[C@@H]65)C2)C1`, the GI50 was < 3.33 nM with COLO 205 colon; 148 nM with HCT-15 colon; < 3.33 nM with HT29 colon; 3.66 nM in the experiment on NCI-H460 lung; 0.745 µM in the experiment on NCI/ADR-RES ovarian; < 3.33 nM in the experiment with SK-OV-3 ovarian. The GI50 in the experiment on TK-10 renal is 13000 nM. The TGI is 0.00878 µM in the experiment on COLO 205 colon; > 21.4 µM with HCT-15 colon; > 33.3 µM in the experiment on NCI-H460 lung; > 9.84 µM in the experiment on NCI/ADR-RES ovarian; > 33.3 µM in the experiment on SK-OV-3 ovarian; > 33.3 µM in the experiment on TK-10 renal.
On to `Cc1cnc(Nc2ccc(OCCN3CCCC3)cc2)nc1Nc1cccc(S(=O)(=O)NC(C)(C)C)c1`, for which the GI50 in the experiment on COLO 205 colon was 720 nM; in the experiment with HCT-15 colon it was 330 nM and 1790 nM; with HT29 colon, 97.3 nM and 564 nM; with NCI-H460 lung, 228 nM and 1090 nM; with NCI/ADR-RES ovarian, 7.01 µM and > 7.11 µM; in the experiment with SK-OV-3 ovarian, 171 nM and 631 nM. Further, the GI50 in the experiment on TK-10 renal is 149 nM and 424 nM. Also, the TGI is 0.859 µM and 2.55 µM with COLO 205 colon; 11.5 µM and > 10 µM in the experiment on HCT-15 colon; 2.28 µM and 5.12 µM in the experiment on HT29 colon; 7.28 µM and > 10 µM in the experiment with NCI-H460 lung; 26.6 µM and > 10 µM in the experiment on NCI/ADR-RES ovarian; 2.62 µM and 3.14 µM with SK-OV-3 ovarian. Also, the TGI in the experiment on TK-10 renal is 3.7 µM and 1.85 µM.
Regarding `COc1nc(C)cc2c(=O)n(-c3ccccc3)n(CC(O)CN3CCN(c4ccc(Cl)cc4)CC3)c(=O)c12` (stereo not given), the GI50 is > 50000 nM in the experiment with COLO 205 colon; > 50000 nM in the experiment on HCT-15 colon; > 50000 nM in the experiment on HT29 colon; > 50000 nM with NCI-H460 lung; > 50 µM in the experiment on NCI/ADR-RES ovarian; 22300 nM in the experiment on SK-OV-3 ovarian. The GI50 with TK-10 renal was > 50000 nM. Moreover, the TGI in the experiment with COLO 205 colon, in the experiment with HCT-15 colon, with HT29 colon, in the experiment on NCI-H460 lung, in the experiment with NCI/ADR-RES ovarian and in the experiment with SK-OV-3 ovarian was > 50 µM each time. Besides, the TGI with TK-10 renal was > 50 µM.
Turning to `COC(=O)[C@]1(C)CCC[C@@]2(C)[C@@H]3C[C@@H]4[C@H]5C[C@@]3(CC[C@@H]21)C[C@@]45C`, the TGI came out at 45.8 µM with COLO 205 colon; 29.7 µM in the experiment on HCT-15 colon; 27.6 µM in the experiment with HT29 colon; 32.1 µM with NCI/ADR-RES ovarian; 27.8 µM in the experiment on SK-OV-3 ovarian; 28.3 µM in the experiment on TK-10 renal.
